The source of these data is patent US20260274829A1, “NEW E3 UBIQUITIN LIGASE LIGAND, PROTEIN DEGRADATION AGENT AND USE THEREOF” (GLUETACS THERAPEUTICS (SHANGHAI) CO., LTD., priority 2023, published 2026).

Bounds are passed on as bounds.

T1 sequence (Q96SW2 whole entry): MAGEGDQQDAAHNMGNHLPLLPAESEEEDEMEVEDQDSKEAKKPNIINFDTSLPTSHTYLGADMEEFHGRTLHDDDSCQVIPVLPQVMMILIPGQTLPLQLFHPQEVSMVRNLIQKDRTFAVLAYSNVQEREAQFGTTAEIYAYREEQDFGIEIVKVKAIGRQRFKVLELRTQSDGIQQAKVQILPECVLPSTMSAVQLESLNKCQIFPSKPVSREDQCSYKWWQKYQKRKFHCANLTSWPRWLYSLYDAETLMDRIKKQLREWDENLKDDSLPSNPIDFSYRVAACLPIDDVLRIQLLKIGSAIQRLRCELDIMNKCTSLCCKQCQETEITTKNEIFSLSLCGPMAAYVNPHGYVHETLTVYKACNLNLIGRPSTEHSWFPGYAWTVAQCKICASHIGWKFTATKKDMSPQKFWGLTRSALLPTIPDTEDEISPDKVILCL

The experiment has as its target T1, human Cereblon WT GST-tagged protein (Homo sapiens, UniProt Q96SW2).
T1 construct: purchased CISBIO 64BDCRBNPEH
Nature of the experiment: CRBN binding, HTRF CEREBLON BINDING kit. The note with it: CRBN binding, HTRF CEREBLON BINDING kit. An outline of the steps: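 Binding inhibition was calculated from the 665/620 nm emission ratios, with blank wells and solvent wells as references. Test compounds competed for GST-tagged human Cereblon WT against a Thalidomide-Re reagent paired with GST Eu antibody. Plates were sealed and held at room temperature for 3 hours before the HTRF read.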
Background: In TR-FRET formats the signal depends on donor and acceptor labels being close together.
What is called IC50 is the concentration at which inhibition is half-maximal. A high value points to weaker potency in that assay. Compound `Nc1nc(Nc2ccc(S(=O)(=O)N3CCN(Cc4ccc(N5CCC(=O)NC5=O)cc4)CC3)cc2)nn1C(=O)c1c(F)cccc1F` [GT-06751, 1-(4-((4-((4-((5-amino-1-(2,6-difluorobenzoyl)-1H-1,2,4-triazol-3-yl)amino)phenyl)sulfonyl)piperazin-1-yl)methyl)phenyl)dihydropyrimidine-2,4(1H,3H)-dione] had an IC50 of 1000 to 1900 nM. With `Cc1cc(S(=O)(=O)N2CCN(Cc3cccc(N4CCC(=O)NC4=O)c3)CC2)ccc1Nc1ncc(Br)c(Nc2cccc(F)c2C(N)=O)n1` [GT-06832, 2-((5-bromo-2-((4-((4-(3-(2,4-dioxotetrahydropyrimidin-1(2H)-yl)benzyl)piperazin-1-yl)sulfonyl)-2-methylphenyl)amino)pyrimidin-4-yl)amino)-6-fluorobenzamide] the figure was under 500 nM; with `Cc1nc2c(F)cc(-c3nc(Nc4ccc(N5CCC(N(C)Cc6ccc(N7CCC(=O)NC7=O)cc6)CC5)cn4)ncc3F)cc2n1C(C)C` [GT-06838, 1-(4-(((1-(6-((5-fluoro-4-(4-fluoro-1-isopropyl-2-methyl-1H-benzo[d]imidazol-6-yl)pyrimidin-2-yl)amino)pyridin-3-yl)piperidin-4-yl)(methyl)amino)methyl)phenyl)dihydropyrimidine-2,4(1H,3H)-dione], 500 to 1000 nM; with `Cc1nc2c(F)cc(-c3nc(Nc4ccc(N5CCC(N(C)Cc6cccc(N7CCC(=O)NC7=O)c6)CC5)cn4)ncc3F)cc2n1C(C)C` [GT-06839, 1-(3-(((1-(6-((5-fluoro-4-(4-fluoro-1-isopropyl-2-methyl-1H-benzo[d]imidazol-6-yl)pyrimidin-2-yl)amino)pyridin-3-yl)piperidin-4-yl)(methyl)amino)methyl)phenyl)dihydropyrimidine-2,4(1H,3H)-dione], 1000 to 1900 nM. For `CN(Cc1ccc(N2CCC(=O)NC2=O)cn1)C1CCN(c2ccc(Nc3ncc4nc(Nc5ccccc5)n(C5CCCC5)c4n3)cc2)CC1` [GT-07093, 1-(6-(((1-(4-((9-cyclopentyl-8-(phenylamino)-9H-purin-2-yl)amino)phenyl)piperidin-4-yl)(methyl)amino)methyl)pyridin-3-yl)dihydropyrimidine-2,4(1H,3H)-dione] the value was 500 to 1000 nM.

With `CN(Cc1cccc(NC2CCC(=O)NC2=O)c1)C1CCN(c2ccc(Nc3ncc4nc(Nc5ccccc5)n(C5CCCC5)c4n3)cc2)CC1` (stereo not shown) [GT-07094, 3-((3-(((1-(4-((9-cyclopentyl-8-(phenylamino)-9H-purin-2-yl)amino)phenyl)piperidin-4-yl)(methyl)amino)methyl)phenyl)amino)piperidine-2,6-dione], the IC50 is 1000 to 1900 nM. For `CCc1cc2c(cc1N1CCC(N3CCN(Cc4ccc(N5CCC(=O)NC5=O)cc4)CC3)CC1)C(C)(C)c1[nH]c3cc(C#N)ccc3c1C2=O` [GT-07307, 8-(4-(4-(4-(2,4-dioxotetrahydropyrimidin-1(2H)-yl)benzyl)piperazin-1-yl)piperidin-1-yl)-9-ethyl-6,6-dimethyl-11-oxo-6,11-dihydro-5H-benzo[b]carbazole-3-carbonitrile] the value was 500 to 1000 nM; for `CCc1cc2c(cc1N1CCC(N3CCN(Cc4ccc(N5CCC(=O)NC5=O)c(F)c4)CC3)CC1)C(C)(C)c1[nH]c3cc(C#N)ccc3c1C2=O` [GT-07308, 8-(4-(4-(4-(2,4-dioxotetrahydropyrimidin-1(2H)-yl)-3-fluorobenzyl)piperazin-1-yl)piperidin-1-yl)-9-ethyl-6,6-dimethyl-11-oxo-6,11-dihydro-5H-benzo[b]carbazole-3-carbonitrile], 500 to 1000 nM; for `CCc1cc2c(cc1N1CCC(N3CCN(Cc4ccc(N5CCC(=O)NC5=O)cc4F)CC3)CC1)C(C)(C)c1[nH]c3cc(C#N)ccc3c1C2=O` [GT-07309, 8-(4-(4-(4-(2,4-dioxotetrahydropyrimidin-1(2H)-yl)-2-fluorobenzyl)piperazin-1-yl)piperidin-1-yl)-9-ethyl-6,6-dimethyl-11-oxo-6,11-dihydro-5H-benzo[b]carbazole-3-carbonitrile], 500 to 1000 nM. `CCc1cc2c(cc1N1CCC(N3CCN(Cc4cccc(N5CCC(=O)NC5=O)c4)CC3)CC1)C(C)(C)c1[nH]c3cc(C#N)ccc3c1C2=O` [GT-07310, 8-(4-(4-(3-(2,4-dioxotetrahydropyrimidin-1(2H)-yl)benzyl)piperazin-1-yl)piperidin-1-yl)-9-ethyl-6,6-dimethyl-11-oxo-6,11-dihydro-5H-benzo[b]carbazole-3-carbonitrile] displayed an IC50 of 500 to 1000 nM. With `CCc1cc2c(cc1N1CCC(N3CCN(Cc4ccc(N5CCC(=O)NC5=O)cn4)CC3)CC1)C(C)(C)c1[nH]c3cc(C#N)ccc3c1C2=O` [GT-07311, 8-(4-(4-((5-(2,4-dioxotetrahydropyrimidin-1(2H)-yl)pyridin-2-yl)methyl)piperazin-1-yl)piperidin-1-yl)-9-ethyl-6,6-dimethyl-11-oxo-6,11-dihydro-5H-benzo[b]carbazole-3-carbonitrile] the figure was 500 to 1000 nM; with `CCc1cc2c(cc1N1CCC(N3CCN(Cc4cccc(NC5CCC(=O)NC5=O)c4)CC3)CC1)C(C)(C)c1[nH]c3cc(C#N)ccc3c1C2=O` (stereo not shown) [GT-07313, 8-(4-(4-(3-((2,6-dioxopiperidin-3-yl)amino)benzyl)piperazin-1-yl)piperidin-1-yl)-9-ethyl-6,6-dimethyl-11-oxo-6,11-dihydro-5H-benzo[b]carbazole-3-carbonitrile], 1000 to 1900 nM; with `CCc1cc2c(cc1N1CCN(Cc3ccc(C4CCC(=O)NC4=O)cc3)CC1)C(C)(C)c1[nH]c3cc(C#N)ccc3c1C2=O` (stereo not shown) [GT-07323, 8-(4-(4-(2,6-dioxopiperidin-3-yl)benzyl)piperazin-1-yl)-9-ethyl-6,6-dimethyl-11-oxo-6,11-dihydro-5H-benzo[b]carbazole-3-carbonitrile], 500 to 1000 nM. With `CCc1cc2c(cc1N1CCN(Cc3ccc(N4CCC(=O)NC4=O)cc3)CC1)C(C)(C)c1[nH]c3cc(C#N)ccc3c1C2=O` [GT-07324, 8-(4-(4-(2,4-dioxotetrahydropyrimidin-1(2H)-yl)benzyl)piperazin-1-yl)-9-ethyl-6,6-dimethyl-11-oxo-6,11-dihydro-5H-benzo[b]carbazole-3-carbonitrile] the figure was 1000 to 1900 nM. With `CCc1cc2c(cc1N1CCN(Cc3cccc(N4CCC(=O)NC4=O)c3)CC1)C(C)(C)c1[nH]c3cc(C#N)ccc3c1C2=O` [GT-07325, 8-(4-(3-(2,4-dioxotetrahydropyrimidin-1(2H)-yl)benzyl)piperazin-1-yl)-9-ethyl-6,6-dimethyl-11-oxo-6,11-dihydro-5H-benzo[b]carbazole-3-carbonitrile] the figure was 500 to 1000 nM. `CCc1cc2c(cc1N1CCN(Cc3ccc(N4CCC(=O)NC4=O)cn3)CC1)C(C)(C)c1[nH]c3cc(C#N)ccc3c1C2=O` [GT-07326, 8-(4-((5-(2,4-dioxotetrahydropyrimidin-1(2H)-yl)pyridin-2-yl)methyl)piperazin-1-yl)-9-ethyl-6,6-dimethyl-11-oxo-6,11-dihydro-5H-benzo[b]carbazole-3-carbonitrile] came in with a concentration for half-maximal inhibition (IC50) of 1000 to 1900 nM. With `CCc1cc2c(cc1N1CCN(Cc3cccc(NC4CCC(=O)NC4=O)c3)CC1)C(C)(C)c1[nH]c3cc(C#N)ccc3c1C2=O` (stereo not shown) [GT-07328, 8-(4-(3-((2,6-dioxopiperidin-3-yl)amino)benzyl)piperazin-1-yl)-9-ethyl-6,6-dimethyl-11-oxo-6,11-dihydro-5H-benzo[b]carbazole-3-carbonitrile] the figure was under 500 nM. For `COc1cc(N2CCN(Cc3ccc(N4CCC(=O)NC4=O)c(F)c3)CC2)ccc1Nc1ncc(Cl)c(Nc2ccccc2P(C)(C)=O)n1` [GT-07346, 1-(4-((4-(4-((5-chloro-4-((2-(dimethylphosphoryl)phenyl)amino)pyrimidin-2-yl)amino)-3-methoxyphenyl)piperazin-1-yl)methyl)-2-fluorophenyl)dihydropyrimidine-2,4(1H,3H)-dione] the value was 1000 to 1900 nM; for `COc1cc(N2CCN(Cc3cccc(N4CCC(=O)NC4=O)c3)CC2)ccc1Nc1ncc(Cl)c(Nc2ccccc2P(C)(C)=O)n1` [GT-07348, 1-(3-((4-(4-((5-chloro-4-((2-(dimethylphosphoryl)phenyl)amino)pyrimidin-2-yl)amino)-3-methoxyphenyl)piperazin-1-yl)methyl)phenyl)dihydropyrimidine-2,4(1H,3H)-dione], 1000 to 1900 nM. For `Cc1cc(Nc2ncc(Cl)c(Nc3ccccc3S(=O)(=O)C(C)C)n2)c(OC(C)C)cc1C1CCN(Cc2ccc(C3CCC(=O)NC3=O)cc2)CC1` (stereo not shown) [GT-07364, 3-(4-((4-(4-((5-chloro-4-((2-(isopropylsulfonyl)phenyl)amino)pyrimidin-2-yl)amino)-5-isopropoxy-2-methylphenyl)piperidin-1-yl)methyl)phenyl)piperidine-2,6-dione] the value was 500 to 1000 nM; for `O=C1CCN(c2cc(CN3CCN(c4ccc(-c5cc(F)c6c(c5)C(=O)N(C(C(=O)Nc5nccs5)c5ncn7c5CCC7)C6)cc4)CC3)ccn2)C(=O)N1` (stereo not shown) [GT-07379, 2-(6,7-dihydro-5H-pyrrolo[1,2-c]imidazol-1-yl)-2-(6-(4-(4-((2-(2,4-dioxotetrahydropyrimidin-1(2H)-yl)pyridin-4-yl)methyl)piperazin-1-yl)phenyl)-4-fluoro-1-oxoisoindolin-2-yl)-N-(thiazol-2-yl)acetamide], under 500 nM; for `O=C1CCN(c2cncc(CN3CCN(c4ccc(-c5cc(F)c6c(c5)C(=O)N(C(C(=O)Nc5nccs5)c5ncn7c5CCC7)C6)cc4)CC3)c2)C(=O)N1` (stereo not shown) [GT-07380, 2-(6,7-dihydro-5H-pyrrolo[1,2-c]imidazol-1-yl)-2-(6-(4-(4-((5-(2,4-dioxotetrahydropyrimidin-1(2H)-yl)pyridin-3-yl)methyl)piperazin-1-yl)phenyl)-4-fluoro-1-oxoisoindolin-2-yl)-N-(thiazol-2-yl)acetamide], under 500 nM.
